Experimental findings from patent US20250230154A1, “COMPOUND HAVING SHP2 PROTEIN DEGRADING ACTIVITY, AND MEDICAL USES THEREOF” (UBIX THERAPEUTICS, INC., priority 2021, published 2025) are described below.

For the assay, the target named is T1, SHP2 protein (Homo sapiens, UniProt Q06124).
T1 sequence (Q06124 1-593): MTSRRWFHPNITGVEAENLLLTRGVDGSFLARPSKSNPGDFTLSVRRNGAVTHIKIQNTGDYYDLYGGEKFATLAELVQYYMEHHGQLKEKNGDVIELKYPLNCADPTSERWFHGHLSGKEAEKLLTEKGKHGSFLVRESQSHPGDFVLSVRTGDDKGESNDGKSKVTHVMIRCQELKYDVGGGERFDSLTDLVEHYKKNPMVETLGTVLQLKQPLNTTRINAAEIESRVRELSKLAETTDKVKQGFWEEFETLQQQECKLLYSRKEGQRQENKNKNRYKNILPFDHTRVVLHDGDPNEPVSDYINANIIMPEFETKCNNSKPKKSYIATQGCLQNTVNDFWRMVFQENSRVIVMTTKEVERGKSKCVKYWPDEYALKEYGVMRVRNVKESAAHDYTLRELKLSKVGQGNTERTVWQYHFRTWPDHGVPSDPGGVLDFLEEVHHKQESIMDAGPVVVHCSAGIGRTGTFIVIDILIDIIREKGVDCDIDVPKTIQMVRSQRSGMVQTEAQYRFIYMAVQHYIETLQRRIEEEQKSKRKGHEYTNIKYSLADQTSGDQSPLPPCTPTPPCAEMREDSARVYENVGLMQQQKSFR
Put plainly: Measurement of SHP2 protein degradation in MV-4-11 cells (western blotting). The arrangement: endogenous in cells; host or cells: MV-4-11. It is filed as cell-based. The following applies: MV-4-11 cells, 24 hours. Put shortly:
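SHP2 protein levels were assessed by western blotting in MV-4-11 cells after a 24 hour compound treatment. Lysates were sonicated, centrifuged, normalized by BCA assay at 562 nm, run on Bis-tris 4-12% gels, transferred to NC membrane, probed with anti-SHPTP2 (70 kDa) and anti-GAPDH (37 kDa) antibodies, and detected on LI-COR Odyssey.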
(In general: Immunoblotting shows a protein as a band on a membrane.)

As to `Cc1ncsc1-c1ccc(CNC(=O)[C@@H]2C[C@@H](O)CN2C(=O)[C@@H](NC(=O)C2(F)CC2)C(C)(C)C)c(OCCCN2CCN(CC(=O)Nc3cccc(Sc4cnc(N5CCC(C)(CN)CC5)cn4)c3Cl)C(=O)C2)c1` [Example 77, (2S,4R)—N-(2-(3-(4-(2-((3-((5-(4-(aminomethyl)-4-methylpiperidin-1-yl)pyrazin-2-yl)thio)-2-chlorophenyl)amino)-2-oxoethyl)-3-oxopiperazin-1-yl)propoxy)-4-(4-methylthiazol-5-yl)benzyl)-1-((S)-2-(1-fluorocyclopropane-1-carboxamido)-3,3-dimethylbutanoyl)-4-hydroxypyrrolidine-2-carboxamide], the “SHP2 degradation (%) 10 nM” value came to 92.4% and the “SHP2 degradation (%) 100 nM” value was determined as 99.5%.
The matching figures for `Cc1ncsc1-c1ccc(CNC(=O)[C@@H]2C[C@@H](O)CN2C(=O)[C@@H](NC(=O)C2(F)CC2)C(C)(C)C)c(OCCCCN2CCN(CC(=O)Nc3cccc(Sc4cnc(N5CCC(C)(CN)CC5)cn4)c3Cl)C(=O)C2)c1` [Example 78, (2S,4R)—N-(2-(4-(4-(2-((3-((5-(4-(aminomethyl)-4-methylpiperidin-1-yl)pyrazin-2-yl)thio)-2-chlorophenyl)amino)-2-oxoethyl)-3-oxopiperazin-1-yl)butoxy)-4-(4-methylthiazol-5-yl)benzyl)-1-((S)-2-(1-fluorocyclopropane-1-carboxamido)-3,3-dimethylbutanoyl)-4-hydroxypyrrolidine-2-carboxamide]: 86.6% and 99.5%.
On to `Cc1ncsc1-c1ccc(CNC(=O)[C@@H]2C[C@@H](O)CN2C(=O)[C@@H](NC(=O)C2CC2)C(C)(C)C)c(OCCN2CCN(CC(=O)Nc3cccc(Sc4cnc(N5CCC(C)(CN)CC5)cn4)c3Cl)C(=O)C2)c1` [Example 79, (2S,4R)—N-(2-(2-(4-(2-((3-((5-(4-(aminomethyl)-4-methylpiperidin-1-yl)pyrazin-2-yl)thio)-2-chlorophenyl)amino)-2-oxoethyl)-3-oxopiperazin-1-yl)ethoxy)-4-(4-methylthiazol-5-yl)benzyl)-1-((S)-2-(cyclopropanecarboxamido)-3,3-dimethylbutanoyl)-4-hydroxypyrrolidine-2-carboxamide], for which the “SHP2 degradation (%) 10 nM” value was 78.4% and the “SHP2 degradation (%) 100 nM” value stood at 98.6%.
On to `Cc1ncsc1-c1ccc(CNC(=O)[C@@H]2C[C@@H](O)CN2C(=O)[C@@H](NC(=O)C2CC2)C(C)(C)C)c(OCCCN2CCN(CC(=O)Nc3cccc(Sc4cnc(N5CCC(C)(CN)CC5)cn4)c3Cl)C(=O)C2)c1` [Example 80, (2S,4R)—N-(2-(3-(4-(2-((3-((5-(4-(aminomethyl)-4-methylpiperidin-1-yl)pyrazin-2-yl)thio)-2-chlorophenyl)amino)-2-oxoethyl)-3-oxopiperazin-1-yl)propoxy)-4-(4-methylthiazol-5-yl)benzyl)-1-((S)-2-(cyclopropanecarboxamido)-3,3-dimethylbutanoyl)-4-hydroxypyrrolidine-2-carboxamide], for which the “SHP2 degradation (%) 10 nM” value amounted to 83.1% and the “SHP2 degradation (%) 100 nM” value stood at 98.2%.
The corresponding values for `Cc1ncsc1-c1ccc(CNC(=O)[C@@H]2C[C@@H](O)CN2C(=O)[C@@H](NC(=O)C2(F)CC2)C(C)(C)C)c(OCCN2CCN(c3ccc(C(=O)Nc4cccc(Sc5cnc(N6CCC(C)(CN)CC6)cn5)c4Cl)nc3)CC2)c1` [Example 81, N-(3-((5-(4-(aminomethyl)-4-methylpiperidin-1-yl)pyrazin-2-yl)thio)-2-chlorophenyl)-5-(4-(2-(2-(((2S,4R)-1-((S)-2-(1-fluorocyclopropane-1-carboxamido)-3,3-dimethylbutanoyl)-4-hydroxypyrrolidine-2-carboxamido)methyl)-5-(4-methylthiazol-5-yl)phenoxy)ethyl)piperazin-1-yl)picolinamide] are 22.7% and 93.2%.
The corresponding values for `Cc1ncsc1-c1ccc(CNC(=O)[C@@H]2C[C@@H](O)CN2C(=O)[C@@H](NC(=O)C2(F)CC2)C(C)(C)C)c(OCCN2CCN(c3ccc(C(=O)Nc4cccc(Sc5cnc(N6CCC(C)(CN)CC6)cn5)c4Cl)cn3)CC2)c1` [Example 82, N-(3-((5-(4-(aminomethyl)-4-methylpiperidin-1-yl)pyrazin-2-yl)thio)-2-chlorophenyl)-6-(4-(2-(2-(((2S,4R)-1-((S)-2-(1-fluorocyclopropane-1-carboxamido)-3,3-dimethylbutanoyl)-4-hydroxypyrrolidine-2-carboxamido)methyl)-5-(4-methylthiazol-5-yl)phenoxy)ethyl)piperazin-1-yl)nicotinamide] are 16.2% and 96.2%.
Consider `Cc1ncsc1-c1ccc(CNC(=O)[C@@H]2C[C@@H](O)CN2C(=O)[C@@H](NC(=O)C2(F)CC2)C(C)(C)C)c(OCCN2CCN(c3cnc(C(=O)Nc4cccc(Sc5cnc(N6CCC(C)(CN)CC6)cn5)c4Cl)nc3)CC2)c1` [Example 83, N-(3-((5-(4-(aminomethyl)-4-methylpiperidin-1-yl)pyrazin-2-yl)thio)-2-chlorophenyl)-5-(4-(2-(2-(((2S,4R)-1-((S)-2-(1-fluorocyclopropane-1-carboxamido)-3,3-dimethylbutanoyl)-4-hydroxypyrrolidine-2-carboxamido)methyl)-5-(4-methylthiazol-5-yl)phenoxy)ethyl)piperazin-1-yl)pyrimidine-2-carboxamide], for which the “SHP2 degradation (%) 10 nM” value is recorded as 79.9% and the “SHP2 degradation (%) 100 nM” value amounted to 97.5%.
The matching figures for `Cc1ncsc1-c1ccc(CNC(=O)[C@@H]2C[C@@H](O)CN2C(=O)[C@@H](NC(=O)C2(F)CC2)C(C)(C)C)c(OCCN2CCN(c3ncc(C(=O)Nc4cccc(Sc5cnc(N6CCC(C)(CN)CC6)cn5)c4Cl)cn3)CC2)c1` [Example 84, N-(3-((5-(4-(aminomethyl)-4-methylpiperidin-1-yl)pyrazin-2-yl)thio)-2-chlorophenyl)-2-(4-(2-(2-(((2S,4R)-1-((S)-2-(1-fluorocyclopropane-1-carboxamido)-3,3-dimethylbutanoyl)-4-hydroxypyrrolidine-2-carboxamido)methyl)-5-(4-methylthiazol-5-yl)phenoxy)ethyl)piperazin-1-yl)pyrimidine-5-carboxamide]: 48.7% and 97.1%.
The corresponding values for `Cc1ncsc1-c1ccc(CNC(=O)[C@@H]2C[C@@H](O)CN2C(=O)[C@@H](NC(=O)C2(F)CC2)C(C)(C)C)c(OCCN2CCN(c3ccc(C(=O)Nc4cccc(Sc5cnc(N6CCC(C)(CN)CC6)cn5)c4Cl)nn3)CC2)c1` [Example 85, N-(3-((5-(4-(aminomethyl)-4-methylpiperidin-1-yl)pyrazin-2-yl)thio)-2-chlorophenyl)-6-(4-(2-(2-(((2S,4R)-1-((S)-2-(1-fluorocyclopropane-1-carboxamido)-3,3-dimethylbutanoyl)-4-hydroxypyrrolidine-2-carboxamido)methyl)-5-(4-methylthiazol-5-yl)phenoxy)ethyl)piperazin-1-yl)pyridazine-3-carboxamide] are 73% and 97.5%.
Regarding `Cc1ncsc1-c1ccc(CNC(=O)[C@@H]2C[C@@H](O)CN2C(=O)[C@@H](NC(=O)C2(F)CC2)C(C)(C)C)c(OCCN2CCN(c3nccc(C(=O)Nc4cccc(Sc5cnc(N6CCC(C)(CN)CC6)cn5)c4Cl)n3)CC2)c1` [Example 86, N-(3-((5-(4-(aminomethyl)-4-methylpiperidin-1-yl)pyrazin-2-yl)thio)-2-chlorophenyl)-2-(4-(2-(2-(((2S,4R)-1-((S)-2-(1-fluorocyclopropane-1-carboxamido)-3,3-dimethylbutanoyl)-4-hydroxypyrrolidine-2-carboxamido)methyl)-5-(4-methylthiazol-5-yl)phenoxy)ethyl)piperazin-1-yl)pyrimidine-4-carboxamide], the “SHP2 degradation (%) 10 nM” value was −29.2% and the “SHP2 degradation (%) 100 nM” value was 23.8%.
The corresponding values for `Cc1ncsc1-c1ccc(CNC(=O)[C@@H]2C[C@@H](O)CN2C(=O)[C@@H](NC(=O)C2(F)CC2)C(C)(C)C)c(OC2CC3(CCN(c4cnc(C(=O)Nc5cccc(Sc6cnc(N7CCC(C)(CN)CC7)cn6)c5Cl)nc4)CC3)C2)c1` [Example 87, N-(3-((5-(4-(aminomethyl)-4-methylpiperidin-1-yl)pyrazin-2-yl)thio)-2-chlorophenyl)-5-(2-(2-(((2S,4R)-1-((S)-2-(1-fluorocyclopropane-1-carboxamido)-3,3-dimethylbutanoyl)-4-hydroxypyrrolidine-2-carboxamido)methyl)-5-(4-methylthiazol-5-yl)phenoxy)-7-azaspiro[3.5]nonan-7-yl)pyrimidine-2-carboxamide] are 9.1% and 45.5%.
